According to ChEMBL document CHEMBL1201862, “PubChem BioAssay data set” (2004):
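Values below derive from 48-hour exposures of cells grown in 96-well plates, with endpoints linearly interpolated between the two concentrations bracketing the appropriate inhibition level. GI50 marks 50% less growth.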 Active and inactive are the calls of the source. No stated cut-off is given here; in the data, active = GI50 up to about 1.1 µM and inactive = higher. Residues, ends and D or L forms follow the SMILES beside them. *: point of attachment. Boc = CC(C)(C)OC(=O)*; OBn = c1ccc(CO*)cc1

How the values were obtained:
Test in all cases: inhibition of tumour cell growth, NCI panel, 48 h
A549 = tested on: A549
UACC-257 = tested on: UACC-257
M14 = tested on: M14
MCF7 = tested on: MCF7
A498 = tested on: A498
HCC 2998 = tested on: HCC 2998
SF-268 = tested on: SF-268
NCI-H460 = tested on: NCI-H460
BT-549 = tested on: BT-549
COLO 205 = tested on: COLO 205
HL-60 = tested on: HL-60
HT-29 = tested on: HT-29
SF-295 = tested on: SF-295
KM12 = tested on: KM12
NCI/ADR-RES = tested on: NCI/ADR-RES
OVCAR-3 = tested on: OVCAR-3
CCRF-CEM = tested on: CCRF-CEM
K562 = tested on: K562
MDA-MB-231 = tested on: MDA-MB-231
DU-145 = tested on: DU-145
SK-MEL-2 = tested on: SK-MEL-2
T47D = tested on: T47D
NCI-H522 = tested on: NCI-H522
NCI-H23 = tested on: NCI-H23
SK-OV-3 = tested on: SK-OV-3
SW-620 = tested on: SW-620
OVCAR-5 = tested on: OVCAR-5
HCT-116 = tested on: HCT-116
UO-31 = tested on: UO-31
ACHN = tested on: ACHN
RPMI-8226 = tested on: RPMI-8226
Malme-3M = tested on: Malme-3M
SNB-75 = tested on: SNB-75
IGROV-1 = tested on: IGROV-1
U-251 = tested on: U-251
HCT-15 = tested on: HCT-15
MDA-MB-435 = tested on: MDA-MB-435
SN12C = tested on: SN12C
OVCAR-8 = tested on: OVCAR-8
MOLT-4 = tested on: MOLT-4
LOX IMVI = tested on: LOX IMVI
RXF 393 = tested on: RXF 393
CAKI-1 = tested on: CAKI-1
EKVX = tested on: EKVX
PC-3 = tested on: PC-3
SR = tested on: SR
HOP-92 = tested on: HOP-92
OVCAR-4 = tested on: OVCAR-4
HOP-62 = tested on: HOP-62
786-0 = tested on: 786-0
Hs-578T = tested on: Hs-578T
UACC-62 = tested on: UACC-62
SNB-19 = tested on: SNB-19
NCI-H226 = tested on: NCI-H226
MDA-N = tested on: MDA-N
SK-MEL-28 = tested on: SK-MEL-28
SK-MEL-5 = tested on: SK-MEL-5
SF-539 = tested on: SF-539
TK-10 = tested on: TK-10

O=CC1OC(=O)c2cc(O)c(O)c(O)c2-c2c(cc(O)c(O)c2O)C(=O)OC1C1OC(=O)c2cc(O)c(O)c(O)c2-c2c(O)c(O)c3oc(=O)c4c(c(O)c(O)c5oc(=O)c2c3c54)-c2c(cc(O)c(O)c2O)C(=O)OCC1O (stereo not drawn)
GI50 (A549): 24.9 µM (inactive) | GI50 (UACC-257): 46.2 µM (inactive) | GI50 (M14): 24.5 µM (inactive) | GI50 (MCF7): 19.6 µM (inactive) | GI50 (A498): 5.94 µM (inactive) | GI50 (HCC 2998): 33.4 µM (inactive) | GI50 (SF-268): 56.9 µM (inactive) | GI50 (NCI-H460): 20.7 µM (inactive) | GI50 (BT-549): > 100 µM (inactive) | GI50 (COLO 205): 26 µM (inactive) | GI50 (HL-60): 20.9 µM (inactive) | GI50 (HT-29): 13.4 µM (inactive) | GI50 (SF-295): 18.7 µM (inactive) | GI50 (KM12): 20.3 µM (inactive) | GI50 (NCI/ADR-RES): 36.8 µM (inactive) | GI50 (OVCAR-3): 39.7 µM (inactive) | GI50 (CCRF-CEM): 24.3 µM (inactive) | GI50 (K562): 26.7 µM (inactive) | GI50 (MDA-MB-231): 13.9 µM (inactive) | GI50 (DU-145): 50.6 µM (inactive) | GI50 (SK-MEL-2): > 100 µM (inactive) | GI50 (T47D): 43.1 µM (inactive) | GI50 (NCI-H522): 18.2 µM (inactive) | GI50 (NCI-H23): 30.8 µM (inactive) | GI50 (SK-OV-3): 50.6 µM (inactive) | GI50 (SW-620): 19.3 µM (inactive) | GI50 (OVCAR-5): 29.6 µM (inactive) | GI50 (HCT-116): 16.9 µM (inactive) | GI50 (UO-31): 23.4 µM (inactive) | GI50 (ACHN): 35.2 µM (inactive) | GI50 (RPMI-8226): 57.8 µM (inactive) | GI50 (Malme-3M): 94.4 µM (inactive) | GI50 (SNB-75): 13.9 µM (inactive) | GI50 (IGROV-1): 39.4 µM (inactive) | GI50 (U-251): 17.9 µM (inactive) | GI50 (HCT-15): 15.7 µM | GI50 (MDA-MB-435): 22.3 µM (inactive) | GI50 (SN12C): 16.6 µM (inactive) | GI50 (OVCAR-8): 19.3 µM (inactive) | GI50 (MOLT-4): 26.1 µM (inactive) | GI50 (LOX IMVI): 11.2 µM (inactive) | GI50 (RXF 393): 57 µM (inactive) | GI50 (CAKI-1): 12.1 µM (inactive) | GI50 (EKVX): 16.9 µM (inactive) | GI50 (PC-3): 38.2 µM (inactive) | GI50 (SR): 39.7 µM (inactive) | GI50 (HOP-92): 16.6 µM (inactive) | GI50 (OVCAR-4): 14.2 µM (inactive) | GI50 (HOP-62): 44.3 µM (inactive) | GI50 (786-0): 18.7 µM (inactive) | GI50 (Hs-578T): 44.7 µM (inactive) | GI50 (UACC-62): 29.4 µM (inactive) | GI50 (SNB-19): 72.3 µM (inactive) | GI50 (NCI-H226): 32.4 µM (inactive) | GI50 (MDA-N): 20.4 µM (inactive) | GI50 (SK-MEL-28): > 100 µM (inactive) | GI50 (SK-MEL-5): 18.2 µM (inactive)

CC(NC(=O)CNC(=O)OC(C)(C)C)C(=O)NC(Cc1ccccc1)C(=O)OCc1ccccc1 (stereo not drawn) (Boc-Gly-Ala-Phe-OBn; configuration not given here)
GI50 (A549): > 100 µM (inactive) | GI50 (SF-539): > 100 µM (inactive) | GI50 (UACC-257): > 100 µM (inactive) | GI50 (M14): > 100 µM (inactive) | GI50 (MCF7): > 100 µM (inactive) | GI50 (A498): > 100 µM (inactive) | GI50 (SF-268): 86.9 µM (inactive) | GI50 (BT-549): > 100 µM (inactive) | GI50 (COLO 205): > 100 µM (inactive) | GI50 (HL-60): 36.3 µM (inactive) | GI50 (TK-10): > 100 µM (inactive) | GI50 (HT-29): 95.9 µM (inactive) | GI50 (SF-295): > 100 µM (inactive) | GI50 (KM12): > 100 µM (inactive) | GI50 (NCI/ADR-RES): > 100 µM (inactive) | GI50 (CCRF-CEM): 40.9 µM (inactive) | GI50 (K562): 40.3 µM (inactive) | GI50 (MDA-MB-231): > 100 µM (inactive) | GI50 (DU-145): > 100 µM (inactive) | GI50 (SK-MEL-2): > 100 µM (inactive) | GI50 (T47D): > 100 µM (inactive) | GI50 (NCI-H522): 68.4 µM (inactive) | GI50 (NCI-H23): > 100 µM (inactive) | GI50 (SK-OV-3): > 100 µM (inactive) | GI50 (SW-620): > 100 µM (inactive) | GI50 (OVCAR-5): > 100 µM (inactive) | GI50 (HCT-116): 14.9 µM (inactive) | GI50 (UO-31): > 100 µM (inactive) | GI50 (ACHN): > 100 µM (inactive) | GI50 (Malme-3M): 63.4 µM (inactive) | GI50 (SNB-75): 56.2 µM (inactive) | GI50 (IGROV-1): > 100 µM (inactive) | GI50 (U-251): > 100 µM (inactive) | GI50 (HCT-15): > 100 µM | GI50 (MDA-MB-435): > 100 µM (inactive) | GI50 (SN12C): > 100 µM (inactive) | GI50 (OVCAR-8): > 100 µM (inactive) | GI50 (MOLT-4): 36 µM (inactive) | GI50 (LOX IMVI): 7.23 µM (inactive) | GI50 (RXF 393): > 100 µM (inactive) | GI50 (CAKI-1): > 100 µM (inactive) | GI50 (EKVX): > 100 µM (inactive) | GI50 (PC-3): > 100 µM (inactive) | GI50 (SR): 23.8 µM (inactive) | GI50 (HOP-92): > 100 µM (inactive) | GI50 (OVCAR-4): > 100 µM (inactive) | GI50 (786-0): 27.9 µM (inactive) | GI50 (Hs-578T): 11.2 µM (inactive) | GI50 (UACC-62): > 100 µM (inactive) | GI50 (SNB-19): > 100 µM (inactive) | GI50 (NCI-H226): 75.7 µM (inactive) | GI50 (MDA-N): > 100 µM (inactive) | GI50 (SK-MEL-28): 36.5 µM (inactive) | GI50 (SK-MEL-5): > 100 µM (inactive)

c1c[nH]c(CN2CCN(Cc3ncc[nH]3)CC2)n1
GI50 (A549): > 100 µM (inactive) | GI50 (SF-539): > 100 µM (inactive) | GI50 (UACC-257): > 100 µM (inactive) | GI50 (M14): > 100 µM (inactive) | GI50 (MCF7): > 100 µM (inactive) | GI50 (A498): > 100 µM (inactive) | GI50 (SF-268): > 100 µM (inactive) | GI50 (NCI-H460): > 100 µM (inactive) | GI50 (BT-549): > 100 µM (inactive) | GI50 (COLO 205): > 100 µM (inactive) | GI50 (HL-60): > 100 µM (inactive) | GI50 (TK-10): > 100 µM (inactive) | GI50 (HT-29): > 100 µM (inactive) | GI50 (SF-295): > 100 µM (inactive) | GI50 (KM12): > 100 µM (inactive) | GI50 (NCI/ADR-RES): > 100 µM (inactive) | GI50 (OVCAR-3): > 100 µM (inactive) | GI50 (CCRF-CEM): > 100 µM (inactive) | GI50 (MDA-MB-231): > 100 µM (inactive) | GI50 (DU-145): > 100 µM (inactive) | GI50 (SK-MEL-2): > 100 µM (inactive) | GI50 (T47D): > 100 µM (inactive) | GI50 (NCI-H522): > 100 µM (inactive) | GI50 (NCI-H23): > 100 µM (inactive) | GI50 (SK-OV-3): > 100 µM (inactive) | GI50 (SW-620): > 100 µM (inactive) | GI50 (OVCAR-5): > 100 µM (inactive) | GI50 (HCT-116): > 100 µM (inactive) | GI50 (UO-31): > 100 µM (inactive) | GI50 (ACHN): > 100 µM (inactive) | GI50 (RPMI-8226): > 100 µM (inactive) | GI50 (Malme-3M): > 100 µM (inactive) | GI50 (SNB-75): > 100 µM (inactive) | GI50 (IGROV-1): > 100 µM (inactive) | GI50 (U-251): > 100 µM (inactive) | GI50 (HCT-15): > 100 µM | GI50 (MDA-MB-435): > 100 µM (inactive) | GI50 (SN12C): > 100 µM (inactive) | GI50 (OVCAR-8): > 100 µM (inactive) | GI50 (MOLT-4): > 100 µM (inactive) | GI50 (LOX IMVI): > 100 µM (inactive) | GI50 (RXF 393): > 100 µM (inactive) | GI50 (CAKI-1): > 100 µM (inactive) | GI50 (EKVX): 52.2 µM (inactive) | GI50 (PC-3): > 100 µM (inactive) | GI50 (SR): > 100 µM (inactive) | GI50 (HOP-92): > 100 µM (inactive) | GI50 (OVCAR-4): > 100 µM (inactive) | GI50 (HOP-62): > 100 µM (inactive) | GI50 (786-0): > 100 µM (inactive) | GI50 (Hs-578T): > 100 µM (inactive) | GI50 (UACC-62): > 100 µM (inactive) | GI50 (SNB-19): > 100 µM (inactive) | GI50 (NCI-H226): > 100 µM (inactive) | GI50 (MDA-N): > 100 µM (inactive) | GI50 (SK-MEL-28): > 100 µM (inactive) | GI50 (SK-MEL-5): > 100 µM (inactive)
